System: Vaccinia virus
Assay: Antiviral activity against Vaccinia virus Lederle Chorioallantoic infected in human Hep2 cells assessed as inhibition of virus-induced cytopathogenic effect
Type: functional, Orthopoxvirus vaccinia, HEp-2

Structure (SMILES): Nc1ncnc2c1ncn2[C@@H]1C[C@H](CO)[C@@H](O)[C@@H]1O (racemic)
- MED50: 9 µg/mL

Reference: ChEMBL document CHEMBL3244025, “Carbocyclic arabinosyladenine, an adenosine deaminase resistant antiviral agent” (J Med Chem, 1977)
